Data: US10045962B2 (priority 2014, dated 2018)
Values joined by “and” are separate entries in the source; they are usually repeats but may differ in a detail not shown here. Equal entries are not always repeated. Structures can show the parent of a compound that is named as a salt. Where two headings read alike, the source gives them in different places.

Legend:
Bladder cancer = settings: summary over cell lines, 10 μM, 72 hours
Method: (§1) These cells were seeded at an amount of 2×10^6 cells, and then added with the culture medium for cultivating the cells to a volume of 10 mL, followed by cultivation for 2 to 3 days. After counting the cell number, these cells were respectively plated in a 96-well plate, in which each well has a fixed cell number of 3000 and a volume of 100 μL.
(§2) After removing the culture medium in the 96-well plate, each well was added with 100 μL of 10 μM commercial drug and then placed for 72 hours. Thereafter, each well was further added with 100 μL of a diluted WST-1 solution (the dilution ratio for the culture medium: WST-1 stock solution (wt/wt) is 9:1).

[1] = tested on: A375 (amelanotic melanoma); settings: 10 μM, 72 hours
Method: as §1, §2

[2] = tested on: HCT116-wt (colorectal carcinoma); settings: 10 μM, 72 hours
Method: as §1, §2
(§3) Each cancer cell inhibitory experiment was repeated for 4 times, followed by calculation of the mean values thereof, which were shown in the following tables.

Skin cancer = settings: summary over cell lines, 10 μM, 72 hours
Method: as §1, §2

Colorectal cancer = settings: summary over cell lines, 10 μM, 72 hours
Method: as §1, §2

[3] = tested on: SAS (tongue squamouscell carcinoma); settings: 10 μM, 72 hours
Method: as §1, §2, §3

[4] = tested on: MCF-7 (mammary gland, adenocarcinoma); settings: 10 μM, 72 hours
Method: as §1, §2

[5] = tested on: Hep3B (hepatocellular carcinoma); settings: 10 μM, 72 hours
Method: as §1, §2, §3

Ovarian cancer = settings: summary over cell lines, 10 μM, 72 hours
Method: as §1, §2

AsPC-1 = settings: 10 μM, 72 hours
Method: as §1, §2, §3

[6] = tested on: MKN-45 (gastric adenocarcinoma); settings: 10 μM, 72 hours
Method: as §1, §2, §3

[7] = tested on: C-33A (cervical carcinoma); settings: 10 μM, 72 hours
Method: as §1, §2

LNCap = settings: 10 μM, 72 hours, single experiments not given
[8] = tested on: 786-O (renal adenocarcinoma); settings: 10 μM, 72 hours
Method: as §1, §2

Lung cancer = settings: summary over cell lines, 10 μM, 72 hours
Method: as §1, §2

[9] = tested on: liver cancer cells (HepG2); settings: for Increased tumor volume, Mean / Volume, Mean / Increased tumor volume / L (longest diameter of the tumor) / Volume / W (shortest diameter of the tumor) / Weight: intraperitoneal daily; for Increased tumor volume, Mean / Volume, Mean: mean of 3 mice; for Increased tumor volume / L (longest diameter of the tumor) / Volume / W (shortest diameter of the tumor) / Weight: mice A, B, C
Method: This experiment was performed with female BALB/cAnN.Cg-Foxn1nu/CrlNarl mice with a weight of around 21±1 gas samples. After subcutaneous injection of liver cancer cells (HepG2), the mice were randomly divided into three groups based on the test drug, i.e., normal control group, low dosage group (100 mg/kg/day) and high dosage group (200 mg/kg/day). After the tumor was grown to be over 100 mm^3, the mice were treated with the drug via intraperitoneal injection daily. The tumor size was measured two times per week. The formula for determining the tumor size was as follows: (L×W^2)/2, in which L represents the longest diameter of the tumor and W represents the shortest diameter of the tumor.

T24 = settings: 10 μM, 72 hours
Method: as §1, §2, §3

[10] = tested on: MDA-MB-231 (mammary gland, adenocarcinoma); settings: 10 μM, 72 hours
Method: as §1, §2, §3

[11] = High dosage (200 mg/kg/day), Fifth measurement
[12] = High dosage (200 mg/kg/day), First measurement
[13] = High dosage (200 mg/kg/day), First measurement, hydrochloride
[14] = High dosage (200 mg/kg/day), Fourth measurement
[15] = High dosage (200 mg/kg/day), Second measurement
[16] = High dosage (200 mg/kg/day), Second measurement, hydrochloride
[17] = High dosage (200 mg/kg/day), Third measurement
[18] = Low dosage (100 mg/kg/day), Fifth measurement
[19] = Low dosage (100 mg/kg/day), Fifth measurement, hydrochloride
[20] = Low dosage (100 mg/kg/day), First measurement
[21] = Low dosage (100 mg/kg/day), First measurement, hydrochloride
[22] = Low dosage (100 mg/kg/day), Fourth measurement
[23] = Low dosage (100 mg/kg/day), Fourth measurement, hydrochloride
[24] = Low dosage (100 mg/kg/day), Second measurement
[25] = Low dosage (100 mg/kg/day), Second measurement, hydrochloride
[26] = Low dosage (100 mg/kg/day), Third measurement
[27] = Low dosage (100 mg/kg/day), Third measurement, hydrochloride

CNCC[C@H](Oc1cccc2ccccc12)c1cccs1 [duloxetine HCl, Duloxetine hydrochloride]
Survival rate (%) (Bladder cancer): 67.2%
Mean survival rate (%) ([1]; mean of 4 experiments): 31.5%
survival rate 0602-30 min ([1]; single experiment): 25.7%
survival rate 0605-10 min ([1]; single experiment): 16.2%
survival rate 0607-10 min ([1]; single experiment): 17.1%
survival rate 0609-10 min ([1]; single experiment): 67.0%
Mean survival rate (%) ([2]; mean of 4 experiments): 77.1%
survival rate 0602-30 min ([2]; single experiment): 52.1%
survival rate 0605-10 min ([2]; single experiment): 108.8%
survival rate 0607-10 min ([2]; single experiment): 127.4%
survival rate 0609-10 min ([2]; single experiment): 20.3%
Survival rate (%) (Skin cancer): 39.79%
Survival rate (%) (Colorectal cancer): 62.21%
Survival rate (%) ([3]; Lingual cancer (SAS), summary table): 82.44%
Mean survival rate (%) ([3]; SAS, mean of 4 experiments): 82.4%
survival rate 6-26-10 min ([3]; SAS, single experiment): 45.7%
survival rate 6-28-10 min ([3]; SAS, single experiment): 88.9%
survival rate 6-30-10 min ([3]; SAS, single experiment): 96.2%
survival rate 7-3-10 min ([3]; SAS, single experiment): 98.9%
Mean survival rate (%) ([4]; mean of 4 experiments): 31.2%
survival rate 0612-10 min ([4]; single experiment): 29.0%
survival rate 0614-10 min ([4]; single experiment): 37.3%
survival rate 0616-10 min ([4]; single experiment): 30.0%
survival rate 0619-10 min ([4]; single experiment): 28.5%
Mean (survival rate) ([5]; mean of 4 experiments): 47.9%
survival rate 0612-20 min ([5]; single experiment): 41.4%
survival rate 0614-20 min ([5]; single experiment): 53.3%
survival rate 0616-20 min ([5]; single experiment): 36.2%
survival rate 0619-20 min ([5]; single experiment): 60.6%
Survival rate (%) (Ovarian cancer): 51.5%
Mean survival rate (%) (AsPC-1; mean of 4 experiments): 60.3%
survival rate 1-4-30 min (AsPC-1; single experiment): 61.7%
survival rate 1-7-3-30 min (AsPC-1; single experiment): 75.7%
survival rate 1-7-4-30 min (AsPC-1; single experiment): 78.0%
survival rate 1-7-7-30 min (AsPC-1; single experiment): 26.0%
Mean (survival rate) ([6]; mean of 4 experiments): 59.7%
survival rate 0510-10 min ([6]; single experiment): 59.5%
survival rate 0512-10 min ([6]; single experiment): 75.3%
survival rate 0515-10 min ([6]; single experiment): 46.0%
survival rate 0517-10 min ([6]; single experiment): 57.9%
Mean survival rate (%) ([7]; mean of 4 experiments): 40.7%
survival rate 0524-10 min ([7]; single experiment): 34.3%
survival rate 0526-10 min ([7]; single experiment): 52.4%
survival rate 0529-10 min ([7]; single experiment): 33.7%
survival rate 0531-10 min ([7]; single experiment): 42.4%
Mean (survival rate) (LNCap): 72.8%
Mean survival rate (%) ([8]; 786-O, mean of 4 experiments): 67.3%
survival rate 0524-10 min ([8]; 786-O, single experiment): 60.4%
survival rate 0526-10 min ([8]; 786-O, single experiment): 89.7%
survival rate 0529-10 min ([8]; 786-O, single experiment): 49.0%
survival rate 0531-10 min ([8]; 786-O, single experiment): 70.1%
Survival rate (%) ([8]; Renal cancer (786-O), summary table): 67.3%
Survival rate (%) (Lung cancer): 36.87%
Increased tumor volume, Mean [9, 11]: 0 mm^3
Volume, Mean [9, 11]: 0 mm^3
Increased tumor volume [9, 11]: 0 mm^3
L (longest diameter of the tumor) [9, 11]: 0 mm
Volume [9, 11]: 0 mm^3
W (shortest diameter of the tumor) [9, 11]: 0 mm
Weight [9, 11]: 20 g
Weight ([9]; High dosage (200 mg/kg/day), Fifth measurement, hydrochloride): 21 g
Increased tumor volume, Mean [9, 12]: 78.5 mm^3
Volume, Mean [9, 12]: 78.5 mm^3
Weight [9, 12]: 20 g
L (longest diameter of the tumor) [9, 13]: 6 mm and 8 mm and 7 mm
W (shortest diameter of the tumor) [9, 13]: 4 mm and 5 mm
Weight [9, 13]: 19 g and 18.5 g
Increased tumor volume, Mean [9, 14]: −13.3333 mm^3
Volume, Mean [9, 14]: 0 mm^3
L (longest diameter of the tumor) [9, 14]: 0 mm
Volume [9, 14]: 0 mm^3
W (shortest diameter of the tumor) [9, 14]: 0 mm
Weight [9, 14]: 20 g
Weight ([9]; High dosage (200 mg/kg/day), Fourth measurement, hydrochloride): 21 g
Increased tumor volume, Mean [9, 15]: −25.8333 mm^3
Volume, Mean [9, 15]: 52.67 mm^3
Weight [9, 15]: 20 g
L (longest diameter of the tumor) [9, 16]: 6 mm and 5 mm and 7 mm
W (shortest diameter of the tumor) [9, 16]: 4 mm and 3 mm and 5 mm
Weight [9, 16]: 23 g
Increased tumor volume, Mean [9, 17]: −39.3333 mm^3
Volume, Mean [9, 17]: 13.33 mm^3
Weight ([9]; High dosage (200 mg/kg/day), Third measurement, hydrochloride): 19 g and 18.5 g
Increased tumor volume, Mean [9, 18]: −8.333 mm^3
Volume, Mean [9, 18]: 63.33 mm^3
Weight [9, 18]: 20 g
L (longest diameter of the tumor) [9, 19]: 6 mm and 4 mm
W (shortest diameter of the tumor) [9, 19]: 6 mm and 5 mm and 4 mm
Weight [9, 19]: 22 g
Increased tumor volume, Mean [9, 20]: 113.1667 mm^3
Volume, Mean [9, 20]: 113.1667 mm^3
Increased tumor volume [9, 21]: 87.5 mm^3 and 144 mm^3 and 108 mm^3
L (longest diameter of the tumor) [9, 21]: 7 mm and 8 mm and 6 mm
Volume [9, 21]: 87.5 mm^3 and 144 mm^3 and 108 mm^3
W (shortest diameter of the tumor) [9, 21]: 5 mm and 6 mm
Weight [9, 21]: 19 g and 18 g
Increased tumor volume, Mean [9, 22]: −18.1667 mm^3
Volume, Mean [9, 22]: 71.67 mm^3
Weight [9, 22]: 20 g
L (longest diameter of the tumor) [9, 23]: 6 mm and 4 mm
W (shortest diameter of the tumor) [9, 23]: 6 mm and 4 mm and 5 mm
Weight [9, 23]: 22 g
Increased tumor volume, Mean [9, 24]: −4.167 mm^3
Volume, Mean [9, 24]: 109 mm^3
Weight [9, 24]: 20 g
L (longest diameter of the tumor) [9, 25]: 6 mm and 7 mm
Volume [9, 25]: 75 mm^3 and 126 mm^3
W (shortest diameter of the tumor) [9, 25]: 5 mm and 6 mm
Weight [9, 25]: 19 g and 21 g
Increased tumor volume, Mean [9, 26]: −19.1667 mm^3
Volume, Mean [9, 26]: 89.83 mm^3
L (longest diameter of the tumor) [9, 26]: 7 mm
W (shortest diameter of the tumor) [9, 27]: 6 mm and 4 mm and 5 mm
Weight [9, 27]: 20.5 g and 23.5 g and 19 g
inhibitory effect against the tumors ([9]; both low dosage and high dosage, FIG. 2): great inhibitory effect
weight loss during the experiments ([9]; each group of mice, high or low dosage): no obvious weight loss
health condition / death during the treatment ([9]; either high or low dosage): not die during the treatment
effect on tumor volume, high versus low dosage ([9]; high dosage, FIG. 3): better effect
increase of tumor volume ([9]; low dosage and high dosage, FIG. 3): effectively inhibit the increase of tumor volume
Mean (survival rate) (T24; mean of 4 experiments): 85.2%
survival rate T24-1-30 min (T24; single experiment): 81.7%
survival rate T24-2-20 min (T24; single experiment): 90.6%
survival rate T24-3-20 min (T24; single experiment): 71.4%
survival rate T24-4-20 min (T24; single experiment): 97.2%
Mean (survival rate) ([10]; mean of 3 printed experiments): 65.9%
survival rate 0612-10 min ([10]; single experiment): 53.4%
survival rate 0614-10 min ([10]; single experiment): 70.2%
survival rate 0616-10 min ([10]; single experiment): 74.3%
